According to US10316000B2, “Coupled recognition/detection system for in vivo and in vitro use” (Cornell University, priority 2009, dated 2019):
Entries after “also recorded” stand apart in the source; their conditions may differ. One block for each molecule: values may come before it.

Columns and labels:
[1] = Phenolic pKa and phenol/phenolate absorbance of fluorophores; format: physicochemical; details: for pKa: phenolic proton of free fluorophore
Method: The pKa of DFHBI was calculated using the presence of the distinct phenol and phenolate absorbance peaks. […] This dramatic reduction in […] would ensure that a majority of fluorophore molecules would now be in the phenolate form at physiological pH.

HEK 293 cells = assay: Non-specific fluorescence of dyes in HEK 293 cells; format: cell-based; details: for non-specific fluorescence in cells: 10 μM, epifluorescent microscope
Method: Previous studies to utilize conditionally fluorescent RNA binding dyes had focused on triphenylmethane scaffold dyes such as malachite green. However, these studies were halted by the discovery that many of these conditionally fluorescent dyes could interact with cellular components causing the cells to nonspecifically fluoresce. To determine whether the fluorophores of the present invention would be nonspecifically fluorescent in cells, HEK 293 cells were incubated with 10 μM DMHBI and visualized using an epifluorescent microscope.

[2] = Fluorescence of aptamer-DFHBI complexes; format: biochemical; details: unchanged between unbound and bound fluorophore
From the text: The addition of the fluoro groups appeared to cause a slight blue shift in the fluorescence with excitation and emission maxima at 460 nm and 500 nm, respectively (FIG. 12A). […] Thus, further characterization was only carried out on these two brightest clones. […] This increased brightness derived mainly from an increase in the quantum yield from 0.08 for DMHBI-RNA complexes to over 0.6 for DFHBI-RNA complexes. The extinction coefficient for DFHBI remained unchanged between unbound and bound fluorophore: 26,000 M^−1cm^−1.
Equimolar solutions of 24-1-DFHBI complex and eGFP were prepared to measure their relative fluorescence intensity. […] Mg^2+ ion requirement, on the other hand, is much greater for 24-1 and 24-2 than for 13-2 (FIG. 12D). Both 24-1 and 24-2 are optimally fluorescent at 25 mM MgCl2 with only a subtle decrease when the concentration is dropped to 5 mM (the concentration used for SELEX). However, dropping MgCl2 concentration from 5 mM to a more physiological concentration of 0.5 mM results in a 50% drop in fluorescence for both aptamers. Further decreasing the MgCl2 concentration completely abolishes 24-1 fluorescence at ˜0.01 mM, while 24-2 levels out at ˜45% intensity at 0.01 mM MgCl2.

[3] = Fluorescence of free fluorophore (ethanol glass, glycerol viscosity); format: physicochemical
From the text: In GFP, the chromophore is held inside the protein β-barrel structure and rigidified by direct interactions with over a dozen amino acid residues (FIG. 1C). This inflexible positioning of the chromophore by the protein is the reason for its large fluorescent quantum yield. Similarly, the synthetic GFP chromophores 4-hydroxybenzilidene-1,2-dimethyl-imidazol-5-one (“HBDI”) is capable of bright fluorescence only when rigidified by solidified solvents (Niwa et al., “Chemical Nature of the Light Emitter of the Aequorea Green Fluorescent Protein,” Proc. Nat'l Acad. Sci. USA 93:13617-13622 (1996), which is hereby incorporated by reference in its entirety). […] As an initial experiment DMHBI was first dissolved in ethanol and frozen in liquid nitrogen to create an ethanol glass matrix.
To more precisely determine the effect of immobilization on DMHBI fluorescence, 10 μM DMHBI in aqueous buffer was prepared and its fluorescence spectrum was measured in increasing concentrations of glycerol. Because glycerol is known to affect the viscosity of aqueous solutions in a predictable manner, the effect of increasing viscosity on DMHBI fluorescence can be readily measured. An increase in fluorescence intensity with increasing concentrations of glycerol was observed (FIG. 2B).
This is in agreement with previously reported data of the fluorescence spectrum of synthetic GFP chromophore, which is incapable of the excited-state proton transfer reaction that is responsible for green emission spectra found in the GFP protein. […] The reason for this is that the phenolic moiety of the chromophore remains protonated at neutral pH and in the context of the original protein. Deprotonation to the phenolate results in an excitation maxima at ˜475 nm.
Additionally, DFHBI was nonfluorescent when administered to HEK 293 cells, proving its utility for methods involving live cells.

[4] = cited from earlier work; for emission maxima: literature values
aptamer 13-2 = assay: Quantum yield, extinction coefficient and brightness of DMHBI alone and with aptamer 13-2; format: physicochemical
Method: Lucifer Yellow and Cascade Yellow, two fluorophores with known quantum yields, were used as standards and the relative slope changes in the curve depicting absorbance vs. total fluorescence were compared. Values were calculated for DMHBI alone and DMHBI with aptamer 13-2 to identify the underlying reason for fluorescence increase. […] Quantum yield, however, increased enormously from 0.0006 for DMHBI alone to 0.08 for the aptamer-DMHBI complex—an over 100-fold increase. Total brightness, measured as the product of extinction coefficient and quantum yield, went from 0.008 to 1.23 (150-fold). […] More importantly, the fold-increases in both quantum yield and brightness are more than sufficient for detection of the aptamer-fluorophore complex.

[5] = Dissociation constant of aptamer-DMHBI complexes by fluorescence titration; format: binding
From the text: The first step in characterizing the interaction between fluorescence-inducing aptamers of DMHBI was to determine their binding affinities. Because binding of the RNA to DMHBI results in fluorescence, the dissociation constant (Kd) was obtained by titrating increasing amounts of DMHBI to a solution of the aptamer. To correct for any increases in DMHBI background fluorescence, measurements of DMHBI alone at the same concentrations were taken and subtracted from the binding data. These measurements were then used to extrapolate RNA-fluorophore dissociation constants. DMHBI bound to both 3-6 and 13-2 with roughly equal dissociation constants of 500 nM (FIG. 5A).

[6] = ATP-dependent fluorescent sensor from aptamer 13-2 with DMHBI; format: biochemical
From the text: FIGS. 22A-B illustrate the design of a fluorescent ATP sensor using aptamer 13-2. FIG. 22A illustrates how aptamer 13-2 (nt 4-60 of SEQ ID NO: 3, structure from mFOLD, left) was modified by fusing it to a previously-described ATP-aptamer (see structure on right). An unstable stem was fused from the ATP aptamer to 13-2 at the stem A entry point, generating the sensor of SEQ ID NO: 62. FIG. 22B confirms that the fused aptamer construct can be used as an ATP-dependent fluorescent sensor. In the absence of ATP, there is minimal fluorescence, even in the presence of DMHBI (lower curve). However, after addition of 1 mM ATP, the fluorescence increases nearly 30-fold (upper curve).
The mutagenesis studies described in Example 8 confirmed that stem loop A of aptamer 13-2 (see FIG. 22A) could be mutated as long as a stem-forming sequence was retained. Using the same approach identified in Example 17 (for aptamer 24-1), stem-loop A was used as an entry point for introducing an ATP aptamer along with stem destabilization.

[7] = highly viscous solutions, pH 7.4

absorbance maximum, phenol [1]: 363 nm
absorbance maximum, phenolate [1]: 420 nm
pKa [1]: ~6
extinction coefficient [2]: 26,000 M^−1cm^−1
fluorescence in ethanol glass and at high glycerol concentrations [3]: robustly fluorescent
fluorescence in non-viscous solutions [3]: negligible fluorescence
Molecule: CC1=N/C(=C\c2cc(F)c(O)c(F)c2)C(=O)N1C [DFHBI, 4-(3,5-difluoro-4-hydroxybenzylidene)-1,2-dimethyl-imidazol-5-one]
fluorescence when administered to cells (HEK 293 cells): nonfluorescent

Molecule: 4-hydroxybenzylidene-1-methyl-2-penta-1,3-dien-1-yl-imidazolinone [reference compound]
emission maxima [4]: 523 nm

quantum yield (aptamer 13-2; DMHBI alone): 0.0006
total brightness (product of extinction coefficient and quantum yield) (aptamer 13-2; DMHBI alone): 0.008
molar extinction coefficient (aptamer 13-2; DMHBI bound by aptamer 13-2): 15,358 M^−1cm^−1
quantum yield (aptamer 13-2; aptamer-DMHBI complex): 0.08
total brightness (product of extinction coefficient and quantum yield) (aptamer 13-2; aptamer-DMHBI complex): 1.23
increase in quantum yield (aptamer 13-2; complex vs DMHBI alone): over 100 fold
increase in total brightness (aptamer 13-2; complex vs DMHBI alone): 150 fold
molar extinction coefficient (aptamer 13-2; unbound DMHBI): 13,164 M^−1cm^−1
Kd ([5]; aptamer not named, read-out: Kd of the complex (RNA-bound DMHBI)): 500 nM
fraction deprotonated ([1]; pH 8): ~50%
fluorescence in glycerol ([3]; 10 μM in aqueous buffer, 20% glycerol): very limited fluorescence
emission peak [3, 7]: 460 nm
excitation peak [3, 7]: 400 nm
Molecule: COc1cc(/C=C2\N=C(C)N(C)C2=O)cc(OC)c1O [DMHBI, 4-(4-hydroxy-3,5-dimethoxybenzylidene)-1,2-dimethyl-imidazol-5-one]
dissociation τ1/2 ([5]; inferred from Kd assuming diffusion-limited association rates): < 0.1 s
non-specific fluorescence in cells (HEK 293 cells): no increase in background fluorescence; also recorded: No non-specific fluorescence
fluorescence in ethanol glass ([3]; frozen in liquid nitrogen, 77° K): dramatic fluorescent enhancement; also recorded: brilliantly fluorescent
fluorescence in ethanol ([3]; room temperature): nonfluorescent; also recorded: non-fluorescent

pKa [1]: ~10
Molecule: CC1=N/C(=C\c2ccccc2O)C(=O)N1C [o-HBDI, 4-(2-hydroxybenzylidene)-1,2-dimethyl-imidazol-5-one]
emission maxima [4]: 605 nm

Molecule: CN(C)c1ccc(C(=C2C=CC(=[N+](C)C)C=C2)c2ccccc2)cc1 [malachite green, reference compound]
non-specific fluorescence in cells (HEK 293 cells): intensely fluorescent; also recorded: cells turn fluorescent

B1: DsRed: bright red fluorescent protein from coral (Discosoma spp.) (protein, UniProt Q9U6Y8 1-225, looked up)
Red fluorescent protein …: MRSSKNVIKEFMRFKVRMEGTVNGHEFEIEGEGEGRPYEGHNTVKLKVTKGGPLPFAWDILSPQFQYGSKVYVKHPADIPDYKKLSFPEGFKWERVMNFEDGGVVTVTQDSSLQDGCFIYKVKFIGVNFPSDGPVMQKKTMGWEASTERLYPRDGVLKGEIHKALKLKDGGHYLVEFKSIYMAKKPVQLPGYYYVDSKLDITSHNEDYTIVEQYERTEGRHHLFL
excitation maxima ([4]; literature value): 558 nm
emission maxima [4]: 583 nm

B2: sensor of SEQ ID NO: 62: aptamer 13-2 fused via modified stem A to an ATP-binding aptamer, used with DMHBI (nucleic acid)
chain: CUAUUUCUGGAGGGGCGCUACUGUGUGGGAAGAAACUGUGGCACUUCGGUGCCAGCGUAUGGGUGGUUGGGUGCGGUCGGAGAUAGCUCGAGCAAUGC
modifications: listed as RNA, further chemistry not given here
fluorescence increase after addition of ATP ([6]; 1 mM ATP, DMHBI present): ~30 fold
molar fluorescence intensity relative to 13-2 parent aptamer ([6]; ATP-bound): ~20%
